Laboratory results as given in ChEMBL document CHEMBL5150049, “The discovery of (1R, 3R)-1-(3-chloro-5-fluorophenyl)-3-(hydroxymethyl)-1,2,3,4-tetrahydroisoquinoline-6-carbonitrile, a potent and selective agonist of human transient receptor potential cation channel subfamily m member 5 (TRPM5) and evaluation of as a potential gastrointestinal prokinetic agent” (Bioorg Med Chem, 2022).
Converted amounts (≈) assume the structure as drawn.

Columns and labels:
[1] = Solubility of the compound in JP1 solution at pH 1.2 measured after 3 hrs by UHPLC analysis; format: physicochemical
[2] = molecular target: Transient receptor potential cation channel subfamily M member 4 (Homo sapiens, UniProt Q8TD43); test: Agonist activity at human TRPM4 expressed in CHO-K1 cells assessed as increase in relative fluorescence unit by measuring membrane potential by FLIPR assay; format: cell-based
Sequence of Transient receptor potential cation channel subfamily M member 4 (Q8TD43 whole entry): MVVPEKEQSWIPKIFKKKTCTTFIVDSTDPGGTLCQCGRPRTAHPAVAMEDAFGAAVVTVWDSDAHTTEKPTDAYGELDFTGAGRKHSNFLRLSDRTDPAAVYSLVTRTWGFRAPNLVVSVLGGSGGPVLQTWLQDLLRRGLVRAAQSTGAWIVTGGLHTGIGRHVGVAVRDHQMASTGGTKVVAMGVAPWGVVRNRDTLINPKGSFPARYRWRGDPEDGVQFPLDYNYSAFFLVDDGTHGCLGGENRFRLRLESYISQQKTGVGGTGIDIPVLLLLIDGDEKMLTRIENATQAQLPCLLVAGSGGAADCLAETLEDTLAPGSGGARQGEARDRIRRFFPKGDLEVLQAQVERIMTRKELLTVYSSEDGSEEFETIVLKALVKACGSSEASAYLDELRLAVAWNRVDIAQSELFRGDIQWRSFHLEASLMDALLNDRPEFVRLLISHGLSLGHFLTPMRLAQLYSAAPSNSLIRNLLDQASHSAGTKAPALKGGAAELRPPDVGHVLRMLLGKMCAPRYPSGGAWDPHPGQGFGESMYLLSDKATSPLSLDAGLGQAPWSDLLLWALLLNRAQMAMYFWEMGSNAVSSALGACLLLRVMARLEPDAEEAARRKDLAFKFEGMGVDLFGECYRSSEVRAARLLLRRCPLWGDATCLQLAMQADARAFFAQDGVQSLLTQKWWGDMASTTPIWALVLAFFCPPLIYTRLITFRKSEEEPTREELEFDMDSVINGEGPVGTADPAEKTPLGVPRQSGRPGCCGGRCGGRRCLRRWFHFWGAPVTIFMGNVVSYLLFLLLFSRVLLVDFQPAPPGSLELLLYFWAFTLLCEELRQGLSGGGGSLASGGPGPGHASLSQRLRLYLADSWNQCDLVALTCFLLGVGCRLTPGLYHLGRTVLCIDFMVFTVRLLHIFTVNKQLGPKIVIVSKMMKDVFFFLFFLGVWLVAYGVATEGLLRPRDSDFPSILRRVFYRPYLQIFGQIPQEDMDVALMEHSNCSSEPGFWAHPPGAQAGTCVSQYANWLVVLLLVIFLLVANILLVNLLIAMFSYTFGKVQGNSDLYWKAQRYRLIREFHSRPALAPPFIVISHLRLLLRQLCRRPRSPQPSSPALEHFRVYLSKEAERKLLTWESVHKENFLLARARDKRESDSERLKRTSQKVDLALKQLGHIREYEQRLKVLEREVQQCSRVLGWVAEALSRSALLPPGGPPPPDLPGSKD

[3] = molecular target: T1, Transient receptor potential cation channel subfamily M member 5 (Homo sapiens, UniProt Q9NZQ8); test: Agonist activity at human TRPM5 expressed in CHO-K1 cells assessed as increase in relative fluorescence unit measured for 2 mins by FLIPR based membrane potential assay; format: cell-based
T1 sequence (Q9NZQ8 whole entry): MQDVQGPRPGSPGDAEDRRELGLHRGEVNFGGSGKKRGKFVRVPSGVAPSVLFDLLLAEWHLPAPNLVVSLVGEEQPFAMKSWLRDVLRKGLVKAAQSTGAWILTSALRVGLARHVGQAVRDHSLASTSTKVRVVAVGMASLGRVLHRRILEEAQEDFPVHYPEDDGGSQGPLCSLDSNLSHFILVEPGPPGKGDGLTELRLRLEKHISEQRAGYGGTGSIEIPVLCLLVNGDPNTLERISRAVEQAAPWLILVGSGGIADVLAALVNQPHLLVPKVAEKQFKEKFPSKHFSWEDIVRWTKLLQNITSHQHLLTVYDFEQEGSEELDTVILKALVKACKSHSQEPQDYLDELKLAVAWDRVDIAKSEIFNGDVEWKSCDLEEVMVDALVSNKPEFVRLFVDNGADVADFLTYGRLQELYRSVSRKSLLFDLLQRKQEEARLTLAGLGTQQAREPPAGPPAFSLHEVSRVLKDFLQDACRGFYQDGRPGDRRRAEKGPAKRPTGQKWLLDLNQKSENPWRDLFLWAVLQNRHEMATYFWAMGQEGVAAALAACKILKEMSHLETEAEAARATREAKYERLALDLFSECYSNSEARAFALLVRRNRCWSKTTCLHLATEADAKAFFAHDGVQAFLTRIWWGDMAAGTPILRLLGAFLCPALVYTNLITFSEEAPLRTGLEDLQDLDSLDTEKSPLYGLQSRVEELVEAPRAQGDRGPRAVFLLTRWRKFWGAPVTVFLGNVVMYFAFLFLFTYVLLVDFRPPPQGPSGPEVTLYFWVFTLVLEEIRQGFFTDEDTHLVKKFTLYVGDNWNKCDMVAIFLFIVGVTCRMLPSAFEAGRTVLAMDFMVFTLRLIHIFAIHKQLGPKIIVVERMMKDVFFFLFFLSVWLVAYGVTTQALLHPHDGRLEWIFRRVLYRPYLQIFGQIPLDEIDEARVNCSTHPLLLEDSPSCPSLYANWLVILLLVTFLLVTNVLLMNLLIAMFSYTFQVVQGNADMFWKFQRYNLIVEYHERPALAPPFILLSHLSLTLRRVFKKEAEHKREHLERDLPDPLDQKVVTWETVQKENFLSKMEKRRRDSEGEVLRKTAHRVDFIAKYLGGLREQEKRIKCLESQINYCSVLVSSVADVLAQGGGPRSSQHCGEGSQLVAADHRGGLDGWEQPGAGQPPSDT

[4] = Oral bioavailability in C57BL/6 mouse at 30 mg/kg; format: ADME, organism-based; details: in vivo
[5] = Cmax in C57BL/6 mouse at 30 mg/kg, po; format: ADME, organism-based; set-up: dose 30 mg/kg, route po; details: in vivo
[6] = molecular target: Transient receptor potential cation channel subfamily A member 1 (Homo sapiens, UniProt O75762); test: Agonist activity at human TRPA1 expressed in HEK cells assessed as increase in intracellular calcium level measured for 5 mins by FLIPR assay; format: cell-based
Sequence of Transient receptor potential cation channel subfamily A member 1 (O75762 whole entry): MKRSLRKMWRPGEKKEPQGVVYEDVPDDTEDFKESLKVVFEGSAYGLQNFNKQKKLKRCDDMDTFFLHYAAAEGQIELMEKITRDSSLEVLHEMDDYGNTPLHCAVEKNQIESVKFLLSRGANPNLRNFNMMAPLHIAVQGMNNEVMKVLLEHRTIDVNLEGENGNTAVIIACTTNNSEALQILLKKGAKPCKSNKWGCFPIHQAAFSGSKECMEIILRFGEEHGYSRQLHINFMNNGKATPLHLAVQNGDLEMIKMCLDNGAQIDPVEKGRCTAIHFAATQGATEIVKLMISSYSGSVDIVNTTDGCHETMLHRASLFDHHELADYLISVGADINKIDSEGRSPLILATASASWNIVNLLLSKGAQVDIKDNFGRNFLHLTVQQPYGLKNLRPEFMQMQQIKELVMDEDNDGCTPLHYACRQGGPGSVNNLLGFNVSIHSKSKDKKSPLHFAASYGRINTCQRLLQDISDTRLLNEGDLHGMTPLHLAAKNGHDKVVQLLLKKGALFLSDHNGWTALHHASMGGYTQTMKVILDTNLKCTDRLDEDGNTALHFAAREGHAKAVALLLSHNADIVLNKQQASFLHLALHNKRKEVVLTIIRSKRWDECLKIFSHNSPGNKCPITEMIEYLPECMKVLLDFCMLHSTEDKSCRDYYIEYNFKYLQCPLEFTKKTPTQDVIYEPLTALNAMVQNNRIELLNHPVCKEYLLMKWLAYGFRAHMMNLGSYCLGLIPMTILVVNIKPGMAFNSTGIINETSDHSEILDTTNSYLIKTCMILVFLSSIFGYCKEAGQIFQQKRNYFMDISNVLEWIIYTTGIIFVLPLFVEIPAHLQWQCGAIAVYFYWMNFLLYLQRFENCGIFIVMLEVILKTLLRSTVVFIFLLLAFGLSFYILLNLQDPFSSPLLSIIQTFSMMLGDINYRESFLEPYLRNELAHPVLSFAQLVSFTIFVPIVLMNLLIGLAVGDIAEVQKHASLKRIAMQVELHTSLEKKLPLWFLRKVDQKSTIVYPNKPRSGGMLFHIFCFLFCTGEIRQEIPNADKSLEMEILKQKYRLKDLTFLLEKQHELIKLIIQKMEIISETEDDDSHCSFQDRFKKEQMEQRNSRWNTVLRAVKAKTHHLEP

[7] = Half-life in C57BL/6 mouse at 30 mg/kg, po; format: ADME, organism-based; details: in vivo
[8] = Cmax in C57BL/6 mouse at 10 mg/kg, po; format: ADME, organism-based; set-up: dose 10 mg/kg, route po; details: in vivo
[9] = test system: MDR1 (multidrug resistance mutation-1 as written); test: Apparent permeability across apical to basolateral side in LLC-PK1 cells overexpressing multidrug resistance mutation-1; format: ADME, cell-based, Sus scrofa; details: pig
[10] = molecular target: Transient receptor potential cation channel subfamily M member 8 (Homo sapiens, UniProt Q7Z2W7); test: Agonist activity at human TRPM8 expressed in HEK cells assessed as increase in intracellular calcium level measured for 5 mins by FLIPR assay; format: cell-based
[11] = Half-life in C57BL/6 mouse at 10 mg/kg, po; format: ADME, organism-based; details: in vivo
[12] = Volume of distribution at steady state in C57BL/6 mouse at 1 mg/kg, iv; format: ADME, organism-based; details: in vivo
[13] = molecular target: Transient receptor potential cation channel subfamily V member 4 (Homo sapiens, UniProt Q9HBA0); test: Agonist activity at human TRPV4
Sequence of Transient receptor potential cation channel subfamily V member 4 (Q9HBA0 whole entry): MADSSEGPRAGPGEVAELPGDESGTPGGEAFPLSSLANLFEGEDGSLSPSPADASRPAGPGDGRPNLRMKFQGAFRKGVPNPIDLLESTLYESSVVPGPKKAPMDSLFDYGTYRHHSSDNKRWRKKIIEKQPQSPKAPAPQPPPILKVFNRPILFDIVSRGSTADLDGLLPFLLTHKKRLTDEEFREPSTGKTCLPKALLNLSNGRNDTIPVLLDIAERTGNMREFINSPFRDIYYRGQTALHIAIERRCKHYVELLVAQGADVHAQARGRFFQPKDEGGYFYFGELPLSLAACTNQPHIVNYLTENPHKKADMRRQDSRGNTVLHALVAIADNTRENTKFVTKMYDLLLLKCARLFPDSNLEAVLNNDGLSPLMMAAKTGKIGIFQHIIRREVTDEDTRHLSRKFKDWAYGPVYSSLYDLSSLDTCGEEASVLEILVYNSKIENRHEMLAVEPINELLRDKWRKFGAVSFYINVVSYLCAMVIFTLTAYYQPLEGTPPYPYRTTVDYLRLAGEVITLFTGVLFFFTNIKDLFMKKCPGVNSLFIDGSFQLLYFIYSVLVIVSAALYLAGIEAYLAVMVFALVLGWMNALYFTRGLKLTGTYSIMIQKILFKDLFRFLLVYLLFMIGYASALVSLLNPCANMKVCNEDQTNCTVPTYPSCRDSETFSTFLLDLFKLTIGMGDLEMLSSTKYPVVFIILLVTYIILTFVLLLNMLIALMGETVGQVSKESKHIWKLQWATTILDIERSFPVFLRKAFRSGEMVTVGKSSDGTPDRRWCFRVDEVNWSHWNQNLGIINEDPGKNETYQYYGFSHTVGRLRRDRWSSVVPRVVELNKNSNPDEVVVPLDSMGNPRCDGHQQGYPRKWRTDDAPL

[14] = Cmax in C57BL/6 mouse at 100 mg/kg, po; format: ADME, organism-based; set-up: dose 100 mg/kg, route po; details: in vivo
[15] = Solubility of the compound in JP2 solution at pH 6.8 measured after 3 hrs by UHPLC analysis; format: physicochemical
[16] = Oral bioavailability in C57BL/6 mouse at 100 mg/kg; format: ADME, organism-based; details: in vivo
[17] = Metabolic stability in human liver microsomes assessed as half life; format: ADME, Microsome
[18] = molecular target: T2, Transient receptor potential cation channel subfamily M member 5 (Mus musculus, UniProt Q9JJH7); test: Agonist activity at mouse TRPM5 expressed in CHO-K1 cells; format: cell-based
T2 sequence (Q9JJH7 whole entry): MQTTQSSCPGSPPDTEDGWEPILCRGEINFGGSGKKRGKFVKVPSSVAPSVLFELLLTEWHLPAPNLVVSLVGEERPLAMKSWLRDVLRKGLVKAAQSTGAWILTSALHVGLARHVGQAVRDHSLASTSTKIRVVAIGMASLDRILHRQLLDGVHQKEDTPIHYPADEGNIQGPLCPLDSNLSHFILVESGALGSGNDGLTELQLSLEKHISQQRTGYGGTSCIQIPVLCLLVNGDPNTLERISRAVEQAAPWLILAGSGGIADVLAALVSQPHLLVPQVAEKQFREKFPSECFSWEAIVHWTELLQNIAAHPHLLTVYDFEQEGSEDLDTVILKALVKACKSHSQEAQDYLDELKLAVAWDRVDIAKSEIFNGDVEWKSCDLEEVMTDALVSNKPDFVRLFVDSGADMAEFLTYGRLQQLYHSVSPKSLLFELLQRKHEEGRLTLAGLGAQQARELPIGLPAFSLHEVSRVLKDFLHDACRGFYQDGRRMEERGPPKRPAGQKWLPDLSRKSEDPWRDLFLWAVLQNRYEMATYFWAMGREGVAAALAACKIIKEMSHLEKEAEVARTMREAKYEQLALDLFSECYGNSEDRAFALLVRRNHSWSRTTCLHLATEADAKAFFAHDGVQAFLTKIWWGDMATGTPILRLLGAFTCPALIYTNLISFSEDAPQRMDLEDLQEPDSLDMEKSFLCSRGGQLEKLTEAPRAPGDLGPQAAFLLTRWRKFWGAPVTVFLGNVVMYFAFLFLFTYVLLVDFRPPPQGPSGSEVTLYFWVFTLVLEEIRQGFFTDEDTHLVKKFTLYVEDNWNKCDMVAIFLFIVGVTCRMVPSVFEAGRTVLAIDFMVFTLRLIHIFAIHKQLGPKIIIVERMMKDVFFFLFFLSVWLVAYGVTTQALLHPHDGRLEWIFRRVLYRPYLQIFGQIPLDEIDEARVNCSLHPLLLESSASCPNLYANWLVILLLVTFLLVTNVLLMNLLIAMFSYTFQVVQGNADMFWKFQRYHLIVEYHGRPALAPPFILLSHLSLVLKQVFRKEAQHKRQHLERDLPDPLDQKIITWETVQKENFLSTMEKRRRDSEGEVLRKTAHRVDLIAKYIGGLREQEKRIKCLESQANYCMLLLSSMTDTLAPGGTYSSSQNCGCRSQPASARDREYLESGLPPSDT

[19] = test system: MDR1 (multidrug resistance mutation-1 as written); test: Apparent permeability across basolateral to apical side in LLC-PK1 cells overexpressing multidrug resistance mutation-1; format: ADME, cell-based, Sus scrofa; details: pig
[20] = Half-life in C57BL/6 mouse at 1 mg/kg, iv; format: ADME, organism-based; details: in vivo
[21] = molecular target: Transient receptor potential cation channel subfamily V member 1 (Homo sapiens, UniProt Q8NER1); test: Agonist activity at human TRPV1
Sequence of Transient receptor potential cation channel subfamily V member 1 (Q8NER1 whole entry): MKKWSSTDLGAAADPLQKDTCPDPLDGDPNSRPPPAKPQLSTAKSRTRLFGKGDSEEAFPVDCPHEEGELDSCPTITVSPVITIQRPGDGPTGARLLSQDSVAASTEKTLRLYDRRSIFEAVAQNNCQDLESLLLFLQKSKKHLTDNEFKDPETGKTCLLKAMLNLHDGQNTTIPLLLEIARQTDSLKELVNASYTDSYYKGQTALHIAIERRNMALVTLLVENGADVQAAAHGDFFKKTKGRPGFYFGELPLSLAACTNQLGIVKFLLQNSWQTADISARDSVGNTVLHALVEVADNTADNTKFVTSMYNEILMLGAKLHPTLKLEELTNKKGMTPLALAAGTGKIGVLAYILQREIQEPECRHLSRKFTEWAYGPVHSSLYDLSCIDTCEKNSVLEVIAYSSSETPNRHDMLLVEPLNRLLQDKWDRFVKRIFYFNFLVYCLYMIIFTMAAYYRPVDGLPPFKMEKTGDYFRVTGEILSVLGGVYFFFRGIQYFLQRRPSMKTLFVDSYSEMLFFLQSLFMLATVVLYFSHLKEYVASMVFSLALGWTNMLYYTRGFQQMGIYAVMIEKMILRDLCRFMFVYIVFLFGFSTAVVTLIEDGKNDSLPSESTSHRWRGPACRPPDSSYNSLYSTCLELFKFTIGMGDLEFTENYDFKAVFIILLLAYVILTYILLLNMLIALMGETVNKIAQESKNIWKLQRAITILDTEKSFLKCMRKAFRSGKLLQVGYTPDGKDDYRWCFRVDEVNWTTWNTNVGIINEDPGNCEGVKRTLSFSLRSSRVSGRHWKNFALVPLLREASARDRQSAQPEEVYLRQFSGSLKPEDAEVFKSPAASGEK

[22] = Oral bioavailability in C57BL/6 mouse at 10 mg/kg; format: ADME, organism-based; details: in vivo
[23] = AUC (0 to infinity) in C57BL/6 mouse at 100 mg/kg, po; format: ADME, organism-based; set-up: time infinity, dose 100 mg/kg, route po; details: in vivo
[24] = AUC (0 to infinity) in C57BL/6 mouse at 10 mg/kg, po; format: ADME, organism-based; set-up: time infinity, dose 10 mg/kg, route po; details: in vivo
[25] = AUC (0 to infinity) in C57BL/6 mouse at 1 mg/kg, iv; format: ADME, organism-based; set-up: time infinity, dose 1 mg/kg, route iv; details: in vivo
[26] = AUC (0 to infinity) in C57BL/6 mouse at 30 mg/kg, po; format: ADME, organism-based; set-up: time infinity, dose 30 mg/kg, route po; details: in vivo
[27] = Half-life in C57BL/6 mouse at 100 mg/kg, po; format: ADME, organism-based; details: in vivo
[28] = Half-life in C57BL/6 mouse at 300 mg/kg, po; format: ADME, organism-based; details: in vivo
[29] = Area under […] in C57BL/6 mouse at 30 mg/kg administered twice a day; format: ADME, organism-based; details: in vivo
[30] = Solubility of the compound in JP1 solution at pH 1.2; format: physicochemical
[31] = Cmax in C57BL/6 mouse at 300 mg/kg, po; format: ADME, organism-based; set-up: dose 300 mg/kg, route po; details: in vivo
[32] = Area under […] in C57BL/6 mouse at 300 mg/kg administered twice a day; format: ADME, organism-based; details: in vivo
[33] = Apparent permeability across basolateral to apical side in human Caco-2 cells; format: ADME, cell-based
[34] = Unbound fraction in human plasma; format: ADME, cell-free
[35] = AUC (0 to infinity) in C57BL/6 mouse at 300 mg/kg, po; format: ADME, organism-based; set-up: time infinity, dose 300 mg/kg, route po; details: in vivo
[36] = Oral bioavailability in C57BL/6 mouse at 300 mg/kg; format: ADME, organism-based; details: in vivo
[37] = Unbound fraction in mouse plasma; format: ADME, cell-free
[38] = Area under […] in C57BL/6 mouse at 100 mg/kg administered twice a day; format: ADME, organism-based; details: in vivo
[39] = Apparent permeability across apical to basolateral side in human Caco-2 cells; format: ADME, cell-based
[40] = Solubility of the compound in JP2 solution at pH 6.8; format: physicochemical
[41] = Clearance in C57BL/6 mouse at 1 mg/kg, iv; format: ADME, organism-based; details: in vivo

N#Cc1ccc2c(c1)C[C@H](CO)N[C@@H]2c1cc(F)cc(Cl)c1
solubility at 3 h [1]: 3500 µg/mL (≈ 11 mM) | EC50 [2]: 52.5 µM | EC50 [3]: 0.0794 µM | F [4]: 20.3% | Cmax [5]: 301 ng/mL | EC50 [6]: > 15.8 µM | half-life ([7]; C57BL/6, mouse): 5.4 h | Cmax [8]: 101 ng/mL | Papp A→B [9]: 26.6 ×10⁻⁶ cm/s | EC50 [10]: > 15.8 µM | t1/2 ([11]; mouse, po, 10 mg/kg): 4.3 h | Vdss ([12]; mouse, iv, 1 mg/kg): 3.507 L/kg | EC50 [13]: > 15.8 µM | Cmax [14]: 1396 ng/mL | solubility at 3 h [15]: 43 µg/mL (≈ 0.136 mM) | F [16]: 49% | t1/2 ([17]; microsomes): 1.48 h | EC50 [18]: 0.251 µM | Papp B→A [19]: 13.7 ×10⁻⁶ cm/s | t1/2 ([20]; mouse, iv, 1 mg/kg): 0.8 h | EC50 [21]: > 15.8 µM | F [22]: 16.6% | AUC [23]: 8591 ng·h/mL | AUC [24]: 395 ng·h/mL | AUC ([25]; mouse): 177.1 ng·h/mL | AUC [26]: 1716 ng·h/mL | t1/2 ([27]; mouse, po, 100 mg/kg): 6.3 h

N#Cc1ccc2c(c1)C[C@H](CO)N[C@@H]2c1cc(F)cc(Cl)c1 (racemic)
half-life [28]: 5.5 h | AURC [29]: 6.7 h | solubility [30]: 25300 µg/mL (≈ 79.7 mM) | Cmax [31]: 6020 ng/mL | EC50 [2]: 11.5 µM | EC50 [3]: 0.126 µM | AURC [32]: 17.3 h | Papp B→A [33]: 15.4 ×10⁻⁶ cm/s | F [4]: 74% | fraction unbound [34]: 0.121 | AUC(0-inf) [35]: 49400 ng·h/mL | Cmax [5]: 700 ng/mL | t1/2 ([7]; mouse, po, 30 mg/kg): 4.4 h | Cmax [8]: 290 ng/mL | half-life ([11]; C57BL/6, mouse): 2.9 h | bioavailability [36]: 100% | Vd ([12]; C57BL/6, mouse, read-out: Vdss): 4.41 L/kg | Cmax [14]: 3667 ng/mL | F [16]: 100% | fraction unbound [37]: 0.115 | half-life ([17]; liver microsomes): 1.53 h | AURC [38]: 12.3 h | Papp A→B [39]: 10.3 ×10⁻⁶ cm/s | half-life ([20]; C57BL/6, mouse): 1.1 h | solubility [40]: 201 µg/mL (≈ 0.635 mM) | F [22]: 44% | AUC [23]: 28050 ng·h/mL | clearance [41]: 92.3 mL/min/kg | AUC [24]: 848 ng·h/mL | AUC(0-inf) ([25]; C57BL/6, mouse): 181 ng·h/mL | AUC [26]: 3676 ng·h/mL | half-life ([27]; C57BL/6, mouse): 5.1 h
